The text below walks through data of publication PMC11420776 (RSC Advances, 2024).

Data set [1] relates to NCI/ADR-RES (ovarian cancer). The experiment in a line: NCI 60-cell one-dose antiproliferative screen. The format is cell-based, human. The note with it: one dose 10 μM.
Data set [2] concerns NCI-H522 (NSC lung cancer). Put plainly: NCI 60-cell one-dose antiproliferative screen. Type of data set: cell-based, human. The note with it: one dose 10 μM.
In data set [3] the test system is NCI-H322M (NSC lung cancer). The experiment in a line: NCI 60-cell one-dose antiproliferative screen. Type of data set: cell-based, human. The note with it: one dose 10 μM.
A further data set relates to A498 (renal cancer). Put plainly: NCI 60-cell one-dose antiproliferative screen. Type of data set: cell-based, human. The note with it: one dose 10 μM.
Another data set has as its system RXF 393 (renal cancer). Put plainly: NCI 60-cell one-dose antiproliferative screen. The note with it: one dose 10 μM. The format is cell-based, human.
A further data set has as its system MCF7 (breast cancer). Put plainly: NCI 60-cell one-dose antiproliferative screen. Type of data set: cell-based, human. The note with it: one dose 10 μM.
Another data set has as its system SF-295 (CNS cancer). Put plainly: NCI 60-cell one-dose antiproliferative screen. The note with it: one dose 10 μM. Type of data set: cell-based, human.
A further data set relates to HCT-116 (colon cancer). Put plainly: NCI 60-cell one-dose antiproliferative screen. The format is cell-based, human. The note with it: one dose 10 μM.
Data set [4] can be described thus: MTT cytotoxicity assay, MCF10a. Type of data set: cell-based. The note with it: human, MCF10a normal mammary epithelial cells.
Data set [5] relates to MDA-MB-231/ATCC (breast cancer). The experiment in a line: NCI 60-cell one-dose antiproliferative screen. The format is cell-based, human. The note with it: one dose 10 μM.
The test system of data set [6] is NCI-H460 (NSC lung cancer). The experiment in a line: NCI 60-cell one-dose antiproliferative screen. Type of data set: cell-based, human. The note with it: one dose 10 μM.
The subject of another data set is SW-620 (colon cancer). Put plainly: NCI 60-cell one-dose antiproliferative screen. Type of data set: cell-based, human. The conditions noted are these: one dose 10 μM.
The test system of the next data set is CCRF-CEM (leukemia). The experiment in a line: NCI 60-cell one-dose antiproliferative screen. The format is cell-based, human. The note with it: one dose 10 μM.
In the next data set the test system is U251 (CNS cancer). The experiment in a line: NCI 60-cell one-dose antiproliferative screen. Type of data set: cell-based, human. The conditions noted are these: one dose 10 μM.
The test system of a further data set is UACC-257 (melanoma). The experiment in a line: NCI 60-cell one-dose antiproliferative screen. The format is cell-based, human. The conditions noted are these: one dose 10 μM.

For `COc1ccc(-c2nnc3ccc(NN=Cc4ccc(O)cc4)nn23)cc1` [Compound 4g, 4-((2-(3-(4-Methoxyphenyl)-[1,2,4]triazolo[4,3-b]pyridazin-6-yl)hydrazono)methyl)phenol], the GI% in [1] is on record as 73.98%; in [2] it was 53.35%; in data set [3], 38.06%; in the data set on A498 (renal cancer), “— (— GI% is below 15%)”; with RXF 393 (renal cancer) it was 57.34%; in the data set with MCF7 (breast cancer) it was 86.77%. In addition, the GI% in the data set on SF-295 (CNS cancer) is on record as 56.41%; in the data set on HCT-116 (colon cancer) it was 72.71%; in [5], 39.44%; in data set [6], 55.73%; with SW-620 (colon cancer), 32.85%; in the data set with CCRF-CEM (leukemia) it was 85.88%. For the same compound, the GI% was 32.41% with U251 (CNS cancer) and 17.70% in the data set on UACC-257 (melanoma). This compound also yielded a half-maximal inhibitory concentration (IC50) at 72 h in data set [4] of 10.7 ± 0.56 µM.
